The values below come from US10864279B2, “Linker-drug and antibody-drug conjugate (ADC) employing the same” (priority 2016, dated 2020).

In data set [1] the test system is HER2-negative cell lines MDA-MB-468. Put plainly: Potency test, CCK-8 cell viability, MDA-MB-468. Format: cell-based. To be noted: HER2 expression negative, 72-120 hours. The procedure:
(§1) Cells were seeded in Corning CellBIND 96-well plates at densities of 6×10^3 cells/well. After incubation overnight at 37° C., 5% CO2 incubator, different concentrations of ADCs were added to the cells in serial dilutions. The cells were then incubated for 72-120 hours at 37° C., 5% CO2 incubator. After 72-120 hours, the old medium was removed and the cells were rinsed once and treated with 10-fold diluted CCK-8 reagent at 37° C. for 4 hours. The 96-well plates were put in the ELISA reader to measure the absorbance wavelength at 450 nm. Cell viability was calculated by the following equation: Cell Viability (%)=(Intensity of sample/Intensity of control)×100%. IC50 values of the ADC samples were calculated using SigmaPlot software.

In data set [2] the test system is HER2 high-expressing breast cancer cell lines BT-474. As to the kind of experiment: Potency test, CCK-8 cell viability, BT-474. Format: cell-based. Conditions: for IC50: HER2 expression 3+, 72-120 hours; for In vitro selectivity MDA-MB-468/BT-474: ratio of IC50. The procedure:
as §1

Data set [3] deals with HER2 moderate-expressing breast cancer cell lines JIMT-1 with anti-Herceptin drug resistance. As to the kind of experiment: Potency test, CCK-8 cell viability, JIMT-1. Format: cell-based. Conditions: for IC50: HER2 expression 2+ resistant, 72-120 hours; for In vitro selectivity MDA-MB-468/JIMT-1: ratio of IC50. The procedure: as §1
The test system of data set [4] is Endometrial cancer tumor tissue, HER2-positive (+1). As to the kind of experiment: Tumor growth inhibition test: EC PDX model. Format: in vivo, NODSCID mice. To be noted: 10 mg/kg i.v.; Day 12, table head Day 0-60. Here is the method: Endometrial cancer tumor tissue obtained from National Taiwan University was confirmed to be HER2-positive (+1). Tumor (2-3 mm diameter) was subcutaneous implanted to NODSCID mice to test the drug efficacy of ADCs in vivo. When the average tumor size was about 100 mm^3, mice were divided into groups and ADCs were intravenously injected (10 mL/kg B.W. injection volume).

Data set [5] in a line: Storage test in DMSO (LC-MS). Format: physicochemical. To be noted: 20 mM in DMSO, 0, 21, 92 and 99 days at −20° C. Here is the method:
20 mM Linker-drug 7 was stored in DMSO for 0, 21, 92 and 99 days at −20° C. LC-MS was used to analyze the purity of Linker-drug 7. The condition of LC-MS analysis was as follows.
Column: 4.6 mm×20 mm XBridge C18 column (Waters, Milford USA)
Linear gradient: 5 to 70% solvent B (100% acetonitrile with 0.1% formic acid)
Solvent A (0.1% formic acid in ddH2O)
Solvent B (100% acetonitrile with 0.1% formic acid)

For the compound ado-trastuzumab emtansine [Kadcyla], the IC50 (commonly the concentration that inhibits the measured activity by half) turned out to be 15.2 nM in data set [1] (Table 3); 8.11 nM in data set [1] (Table 4); 2.27 nM in data set [2] (Table 3); 0.31 nM in data set [2] (Table 4); 15.5 nM in data set [3] (Table 3); 27 nM in data set [3] (Table 4). Also, the figures for the “In vitro selectivity MDA-MB-468/BT-474” value in data set [2] (Table 3) and in data set [2] (Table 4) were 5.5 and 26.16, respectively. The “In vitro selectivity MDA-MB-468/JIMT-1” value is 1 in data set [3] (Table 3) and 0.30 in data set [3] (Table 4). In addition, the “TGI (%) ± SEM” value in data set [4] is 26.5±10.1%.

For `CC[C@H](C)[C@@H]([C@@H](CC(=O)C1CCCN1[C@H](OC)[C@@H](C)C(=O)N[C@H](Cc1ccccc1)C(=O)NCCc1ccc(NC(=O)[C@@H](CCCNC(N)=O)NC(=O)[C@@H](NC(=O)COCCOCCOCCOCCNC(=O)c2ccc(NC(=O)CCl)c(NC(=O)CCl)c2)C(C)C)cc1)OC)N(C)C(=O)[C@H](NC(=O)[C@H](C(C)C)N(C)C)C(C)C` (stereo partly drawn) [Linker-drug 7], the “storage stability (purity by LC-MS)” value in data set [5] is “stable when dissolved in DMSO”.
